ChEMBL document CHEMBL1201862, “PubChem BioAssay data set” (2004)
The source made the active and inactive calls.

Key:
[1] = target: G-protein coupled receptor 55 (Homo sapiens, UniProt Q9Y2T6); test: GPR55 agonists via beta-arrestin recruitment, primary screen, imaging, U2OS cells, beta-arrestin-GFP redistribution (AID 1961); assay type: functional
CAAX prenyl protease 2 = target: T1, CAAX prenyl protease 2 (Saccharomyces cerevisiae S288c, UniProt Q03530); assay type: biochemical
T1 sequence (Q03530 whole entry): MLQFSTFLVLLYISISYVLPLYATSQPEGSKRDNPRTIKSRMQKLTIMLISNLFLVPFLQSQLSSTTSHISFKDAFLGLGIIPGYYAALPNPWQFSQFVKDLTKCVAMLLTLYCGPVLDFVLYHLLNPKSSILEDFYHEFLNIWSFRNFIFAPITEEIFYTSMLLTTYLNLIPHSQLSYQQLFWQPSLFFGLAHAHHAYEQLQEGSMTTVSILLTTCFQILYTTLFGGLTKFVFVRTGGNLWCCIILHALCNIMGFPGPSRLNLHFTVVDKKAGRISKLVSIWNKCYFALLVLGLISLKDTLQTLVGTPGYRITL

CAAX prenyl protease 1 = CAAX prenyl protease 1 (Saccharomyces cerevisiae S288c, UniProt P47154); test: Ste24 protease inhibitors, dose response, biochemical, S. cerevisiae, plate reader, cherry-pick (AID 488815)
INS1 [2] = test: beta cell apoptosis inhibitors, cytokine rescue, dose response, luminescence, retest (AID 449756); assay type: functional, cell-based; settings: Rattus norvegicus;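 further: cell death triggered by IL-1 beta plus TNF-alpha plus IFN-gamma mixture; protective hits raise ATP signal compared with cytokine alone wells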
[3] = Shn3 3'UTR reporter inhibitors, dose response, cell-based, Clone20 osteoblasts, firefly luciferase, cherry-picked (AID 624132); assay type: functional;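 further: firefly luciferase luminescence from reporter carrying the Shn3 3'UTR in osteoblasts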
[4] = HepG2 cell cytotoxicity, dose response, cytotoxicity control for Shn3 inhibitor project, CellTiter-Glo, cherry-picked (AID 624134); assay type: functional, cell-based
[5] = control 3'UTR Renilla luciferase suppression, dose response, counter-screen for Shn3 inhibitor project, cell-based, Clone20-Shn3RL, cherry-picked (AID 624133); assay type: functional
[6] = target: Cyclin-dependent kinase 2 (Homo sapiens, UniProt P24941); test: CDK2 kinase inhibitors, off-target check, dose response, selectivity assay for Dyrk1A inhibitor project, biochemical, cherry-picked samples (AID 602127)
[7] = target: Dual specificity protein kinase CLK1 (Homo sapiens, UniProt P49759); test: CLK1 kinase inhibitors, off-target check, dose response, selectivity assay for Dyrk1A inhibitor project, biochemical, cherry-picked samples (AID 588811)
INS1 [8] = test: protection from cytokine-driven beta-cell apoptosis, dose response, JC-1 fluorescence, INS-1E, dry powder, set 2 (AID 488867); assay type: functional, cell-based; settings: Rattus norvegicus
INS1 [9] = test: protection from cytokine-induced mitochondrial depolarization, dose response, cell-based, INS-1E, JC-1 fluorescence ratio, dry powder (AID 488931); assay type: functional; settings: Rattus norvegicus
[10] = target: Dual specificity protein phosphatase 3 (Homo sapiens, UniProt P51452); test: SAR VHR1 Fluorescent Assay for In Vitro dose response studies Set 3. [Related pubchem assays (depositor defined):AID1654, AID1661, AID1878]; assay type: functional
[11] = NIH-3T3 fibroblast cytotoxicity, dose response, cytotoxicity control, cell-based, fluorescence, Alamar Blue, secondary assay (AID 2327); assay type: functional;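 further: NIH-3T3 mouse fibroblasts cultured with fluconazole at 8 µg/mL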
cells [12] = assay type: functional, cell-based
[13] = C. albicans growth with fluconazole, confirmation, fluorescence, retest (AID 2467); assay type: functional, cell-based
[14] = inhibitors of intracellular T. cruzi replication, confirmation, NIH3T3 host cells, beta-gal luminescence (AID 2044); assay type: functional, cell-based;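 further: intracellular parasites grown in NIH/3T3 mouse fibroblasts as host cells; luminescent beta-galactosidase reporter signal from transgenic T. cruzi replicating inside host cells; inhibitors lower the luminescence signal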
cells [15] = assay type: functional, cell-based; remark: listed apart in the source
[16] = cytotoxicity toward NIH3T3 fibroblasts, dose response, counter-screen, cell-based, ATP luminescence, mouse fibroblasts (AID 2010); assay type: functional;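 further: cells exposed to compound for about 90 hours before reading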
[17] = target: T2, Microphthalmia-associated transcription factor (Homo sapiens, UniProt O75030); test: TRPM1 promoter luciferase signal decrease, dose response, MITF inhibitor project, cell-based, SK-MEL-5, cherry-picked, set 3 (AID 493073); assay type: functional
T2 sequence (O75030 whole entry): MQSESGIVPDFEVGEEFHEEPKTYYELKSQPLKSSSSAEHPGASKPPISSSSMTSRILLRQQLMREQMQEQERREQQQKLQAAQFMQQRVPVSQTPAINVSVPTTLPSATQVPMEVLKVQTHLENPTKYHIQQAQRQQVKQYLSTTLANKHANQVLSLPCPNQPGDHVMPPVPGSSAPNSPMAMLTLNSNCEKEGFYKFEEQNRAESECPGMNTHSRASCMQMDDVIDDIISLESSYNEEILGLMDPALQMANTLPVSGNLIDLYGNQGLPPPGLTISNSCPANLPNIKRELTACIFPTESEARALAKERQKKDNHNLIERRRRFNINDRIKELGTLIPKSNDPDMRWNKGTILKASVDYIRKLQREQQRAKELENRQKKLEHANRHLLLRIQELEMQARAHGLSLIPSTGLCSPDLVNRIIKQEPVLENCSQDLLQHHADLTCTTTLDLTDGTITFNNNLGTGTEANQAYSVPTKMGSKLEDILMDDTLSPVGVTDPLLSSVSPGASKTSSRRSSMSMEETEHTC

A-375 = test: MITF: Counter assay: A375 proliferation Measured in Cell-Based System Using Plate Reader - 2084-03_Inhibitor_Dose_DryPowder_Activity. [Related pubchem assays (depositor defined):AID488944]; assay type: functional; settings: Homo sapiens

Chain of Dual specificity protein kinase CLK1 (P49759 whole entry): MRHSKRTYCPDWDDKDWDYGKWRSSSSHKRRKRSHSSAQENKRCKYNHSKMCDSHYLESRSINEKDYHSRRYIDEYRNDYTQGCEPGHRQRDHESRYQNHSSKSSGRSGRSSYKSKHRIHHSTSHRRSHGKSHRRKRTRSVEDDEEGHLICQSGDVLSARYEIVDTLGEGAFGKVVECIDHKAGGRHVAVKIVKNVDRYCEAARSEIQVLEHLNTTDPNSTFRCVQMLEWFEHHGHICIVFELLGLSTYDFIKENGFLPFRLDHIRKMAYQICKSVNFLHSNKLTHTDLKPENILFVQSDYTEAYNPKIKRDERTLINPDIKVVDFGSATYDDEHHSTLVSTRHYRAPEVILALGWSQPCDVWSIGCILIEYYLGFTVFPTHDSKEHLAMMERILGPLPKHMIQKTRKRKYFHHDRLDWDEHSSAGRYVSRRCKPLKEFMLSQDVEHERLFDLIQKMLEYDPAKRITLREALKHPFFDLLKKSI
Chain of CAAX prenyl protease 1 (P47154 whole entry): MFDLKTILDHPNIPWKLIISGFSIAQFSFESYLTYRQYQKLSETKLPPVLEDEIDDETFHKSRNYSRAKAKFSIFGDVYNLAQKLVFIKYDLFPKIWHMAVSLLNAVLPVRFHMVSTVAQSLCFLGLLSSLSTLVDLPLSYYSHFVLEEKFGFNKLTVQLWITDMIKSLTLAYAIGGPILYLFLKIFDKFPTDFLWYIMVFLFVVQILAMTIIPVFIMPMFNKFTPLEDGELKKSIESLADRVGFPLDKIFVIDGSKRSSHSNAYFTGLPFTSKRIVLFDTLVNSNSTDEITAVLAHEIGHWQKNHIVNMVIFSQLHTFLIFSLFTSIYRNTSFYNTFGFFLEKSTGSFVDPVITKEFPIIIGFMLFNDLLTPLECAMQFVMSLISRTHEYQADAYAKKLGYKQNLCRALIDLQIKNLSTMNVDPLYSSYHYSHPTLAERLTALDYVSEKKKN
Chain of G-protein coupled receptor 55 (Q9Y2T6 whole entry): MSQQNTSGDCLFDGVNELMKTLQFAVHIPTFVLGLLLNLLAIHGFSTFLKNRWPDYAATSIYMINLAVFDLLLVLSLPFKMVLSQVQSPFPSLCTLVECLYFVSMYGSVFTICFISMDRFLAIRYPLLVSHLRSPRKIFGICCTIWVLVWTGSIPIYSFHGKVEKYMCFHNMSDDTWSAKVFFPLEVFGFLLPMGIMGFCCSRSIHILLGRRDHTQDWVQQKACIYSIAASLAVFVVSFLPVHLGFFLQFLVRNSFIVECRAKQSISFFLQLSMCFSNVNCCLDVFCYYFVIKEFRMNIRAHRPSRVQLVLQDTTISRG
Chain of Dual specificity protein phosphatase 3 (P51452 whole entry): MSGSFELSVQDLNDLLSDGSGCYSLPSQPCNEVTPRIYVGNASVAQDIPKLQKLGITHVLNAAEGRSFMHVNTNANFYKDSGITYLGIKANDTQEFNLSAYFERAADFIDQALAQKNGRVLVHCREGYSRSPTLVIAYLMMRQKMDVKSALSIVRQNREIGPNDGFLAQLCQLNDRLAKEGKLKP

With COc1ccc(C2/C=C\CN(C(=O)c3ccc(C)cc3)[C@H](Cc3ccccc3)C(=O)N2Cc2ccc(F)cc2)cc1 (some centres undefined) the EC50 [1] was > 32 µM (inactive), the AC50 (CAAX prenyl protease 2) was 35.1 µM (active) and the AC50 (CAAX prenyl protease 1) was 37.3 µM (active). For the same compound, the AC50 (INS1 [2]) was 7.14 µM (active), the AC50 [3] was 0.772 µM (active) and the AC50 [4] was > 70 µM (inactive). The AC50 [5] was 18.1 µM (active).

For Cc1ccc(CN(C)c2ncnc3ccc(-c4ccc5c(c4)OCO5)cc23)o1, the AC50 [6] was 11.3 µM (active) and the AC50 [7] was < 0.00195 µM (active).

With C[C@@H]1CN([C@@H](C)CO)C(=O)c2cccc(NC(=O)Nc3cccc4ccccc34)c2O[C@H]1CN(C)S(=O)(=O)c1ccc2c(n1)N(C)CCO2 the AC50 (INS1 [8]) was 69.4 µM (active) and the AC50 (INS1 [9]) was 61.1 µM (active).

In the case of COc1cccc2sc(NC(=O)c3cccc(C(F)(F)F)c3)nc12, the IC50 [10] is reported as > 66 µM (inactive).

For COc1cnc(-c2ccccn2)nc1NC(C)C, the EC50 [11] was 23.1 µM (active), the EC50 (cells [12]) was 19.7 µM (active) and the EC50 [13] was > 38 µM (not active). The EC50 [14] was 2.05 µM (active), the EC50 (cells [15]) was > 350 µM (not active) and the EC50 [16] was 3.77 µM (active). For the same compound, the AC50 [17] was 12.4 µM (active), the AC50 (A-375) was 37.1 µM (active) and the AC50 (INS1 [2]) was 7.93 µM (active). For the same compound, the AC50 [3] was 2.81 µM (active), the AC50 [4] was 5.96 µM (active) and the AC50 [5] was 3.16 µM (active).
